Laboratory results: patent US20110136839A1, “COMBINATION OF TWO ANALGESIC CHEMICALS” (priority 2009, published 2011)
Entries after “also recorded” stand apart in the source; their conditions may differ.

What was measured:
[1] = tested on: carrageenan-evoked hyperalgesia; experiment: Carrageenan model of inflammation, thermal hyperalgesia (paw withdrawal latency); format: in vivo; conditions: rat; for reversal of the hypoalgesia by naloxone (opioid receptor antagonist): drug i.pl. at 1 hour, naloxone chloride or naloxone methiodide s.c. at 24 hours after carrageenan; for effect on carrageenan-evoked thermal hyperalgesia (paw withdrawal latency): intraplantar (local) injection in the inflamed paw 1 hour after carrageenan
Description: Rats received a subcutaneous injection of carrageenan (2% in saline, 100 μl) in the right hindpaw (intraplantar injection). Drug or vehicle were administered intraplantarly (i.pl., 50 μl) 1 hour after carrageenan injection and behavioral testing was performed at various time points. Nociceptive threshold responding to heat was determined as described before (Williams et al., 1990; Wisden et al., 1990: Jiang et al., 2006). Briefly, rat was placed in a device that held the body without restraining the head and legs. Noxious heat stimulation was carried out by immersing the hindpaw up to the ankle joint into a slowly stirred water bath at 47.5° C. while holding the animal with the device. […] Paw withdrawal latency for any test time point was measured twice at 3-min intervals and the mean values were calculated. Baseline latency was measured 10 min before drug or vehicle administration.
Effects of ketanserin on carrageenan-evoked hyperalgesia are illustrated in FIG. 1. Paw withdrawal latencies in seconds were measured in plantar test at the various time points. Data were normalized as percentage of pretreatment baseline (100%) and expressed as the mean ±SEM (standard error of mean).
Paw withdrawal latencies in seconds were determined in plantar test at the various time points. Data were normalized as percentage of pretreatment baseline (100%) and expressed as the mean ±SEM. Carrageenan and ketanserin (20 μg) were given i.pl. into unilateral hindpaw at 0 and 1 hour, respectively.
Paw withdrawal latencies in seconds were examined at the various time points. Data were normalized as percentage of pretreatment baseline (100%) and expressed as the mean ±SEM.
Carrageenan and […] (30 μg) were given i.pl. into unilateral hindpaw at 0 and 1 hour, respectively. Then naloxone chloride (5 mg/ml/kg) or naloxone methiodide (10 mg/ml/kg) or saline (1 ml/kg) was injected s.c. (subcutaneous injection) at 24hours after carrageenan. Paw withdrawal latencies in seconds were measured at the various time points.
Carrageenan (2%, 100 μl) was administered i.pl. at 0 hour and saline (50 μl, i.pl.) or ketanserin (2 μg, i.pl.)+WAY100635 (3 μg, i.pl.) at 1 hour. The results are illustrated in FIG. 5. Paw withdrawal latencies in seconds were examined at the various time points.
Carrageenan model—See those described before.

[2] = tested on: neuropathic pain (SNL); experiment: Neuropathic pain model (spinal nerve ligation), thermal threshold of the hindpaw; format: in vivo, rat
Description: PWL responding to heat stimulus ipsilaterally was measured.
Paw withdrawal latency was measured.

[3] = Animal study of blood pressure and heart rate; format: in vivo; conditions: subcutaneous injection at 0.5 mg/kg
[4] = tested on: carrageenan-evoked hyperalgesia; experiment: Carrageenan model of inflammation, thermal hyperalgesia (paw withdrawal latency); format: in vivo; conditions: rat; for effect on thermal hyperalgesia in carrageenan model (paw withdrawal latency): subcutaneous (systemic) injection 1 hour after carrageenan; for effect on inflammatory hyperalgesia at higher dose (FIG. 7D): subcutaneous injection at 1 hour, doses higher than those in FIG. 7C

Row | Compound | reversal of the hypoalgesia by naloxone (opioid receptor antagonist) [1] | effect on carrageenan-evoked thermal hyperalgesia (paw withdrawal latency) [1] | tolerance ([2]; rat neuropathic pain model, thermal, s.c. injection) | thermal nociceptive threshold in Chung's model of neuropathic pain (paw withdrawal latency) ([2]; rat, s.c. starting at day 4 after spinal nerve ligation) | blood pressure [3] | heart rate [3] | effect on thermal hyperalgesia in carrageenan model (paw withdrawal latency) [4] | effect on inflammatory hyperalgesia at higher dose (FIG. 7D) [4] | reversal of the hypoalgesia by naloxone (opioid receptor antagonist) ([1]; listed as Ketanserin)
1 | COc1ccccc1N1CCN(CCN(C(=O)C2CCCCC2)c2ccccn2)CC1 [WAY100635] | mediated by opioid analgesia mechanism | dose-dependently produces hypoalgesia |  |  |  |  |  |  | 
2 | O=C(c1ccc(F)cc1)C1CCN(CCn2c(=O)[nH]c3ccccc3c2=O)CC1 [ketanserin] | abolished by i.p. naloxone | dose-dependently produces hypoalgesia; also recorded: prolonging in paw withdrawal latency | without tolerance | dose-dependently inhibits | does not alter | does not alter | produces significant inhibition on the nociceptive threshold | exerted stronger effect | mediated by opioid analgesia mechanism
3 | COc1cc2nc(N3CCN(C(=O)c4ccco4)CC3)nc(N)c2cc1OC [prazosin] |  | failed to alter the carrageenan-evoked response |  |  |  |  |  |  | 
4 | CC(C)NCC(O)COc1cccc2ccccc12 (stereo not drawn) [propranolol] | abolished by i.p. naloxone | prolonging in paw withdrawal latency |  |  | does not alter | does not alter | produces significant inhibition on the nociceptive threshold | exerted stronger effect | 
